Laboratory results reported in patent US20240408087A1, “TRPC6 INHIBITORY COMPOUNDS FOR TREATING SEPSIS” (Boehringer Ingelheim International GmbH, priority 2021, published 2024).

How the values were obtained:
mouse CLP model [1] = experiment: Acute model of CLP: vascular hyper-permeability (Evans blue extravasation); type: in vivo
Protocol: Cecal ligation puncture (CLP) is a model of polymicrobial sepsis which consists of extruding fecal content in the abdominal cavity of the animals under anesthesia.
(§1) Two models were performed: • Acute model of CLP lasting 24 h to measure vascular hyper-permeability in lung, liver, kidney and heart tissue. The vascular hyper-permeability was followed by the extravasation of Evans blue injected intravenously and diffused and accumulated into the tissue. The vascular hyper-permeability was expressed as μg of Evans blue in 100 mg of dry tissue. • Chronic model of CLP lasting 8 days. CLP is performed on day 0 and the survival rate is followed for 8 consecutive days.
(§2) Mice were anesthetized with ketamine (80 mg kg^−1, i.p.) and xylazine (10 mg kg^−1, i.p.). A 1-1.5 cm abdominal midline incision was made, and the caecum was located and tightly ligated at half the distance between distal pole and the base of the caecum with 4-0 silk suture (mild grade). The caecum was punctured through-and-through once with a 21-gauge needle after medium ligation. A small amount of stool was extruded to ensure that the wounds were patent. Then the cecum was replaced in its original position within the abdomen, which was closed with sutures in layers. For negative control animals, a sham surgery was performed: sham-operated animals underwent identical laparotomy but without cecal ligation or puncture. The animals were resuscitated immediately after surgery with 1 mL subcutaneous normal saline and returned to their cages. Experiment was terminated at 24 hrs after CLP.
10 mice were included in each group.
Evans blue dye (0.1 mL at 40 mg/kg) was injected through each tail vein 30 minutes before euthanasia at 24 hours after CLP. Lung, kidney, liver and heart tissues are collected, and Evans blue was extracted in Formamide. The concentration of the Evans blue dye was calculated from a standard curve and expressed as μg/100 mg lung dry tissue. The data were analyzed by using commercially available software (Prism, version 8.3.0; GraphPad Software Inc., San Diego, CA). Different groups were compared with the one-way variance analysis (ANOVA) followed by the Dunnett test (e.g CLP group compared to treated groups). All data were expressed as a mean±SEM. The limit of the significance was taken as p values less than 0.05 (p<0.05).

mouse CLP model [2] = experiment: Chronic model of CLP: survival rate; type: in vivo
Protocol: as §1
as §2, with “On day 0, mice” for “Mice”, “cages.” for “cages. Experiment was terminated at 24 hrs after CLP.”
Compound 2 of WO 2019/161010 or its vehicle (0.5% natrosol 0.010% Tween 80) was given orally (5 ml/kg) at 30 mg/kg 2 h after CLP and once daily from day 1 to day 6. Adrecizumab, anti-adrenomedullin antibody, was given at 4 mg/kg i.v. only once, 1 h before CLP. 10 mice were included in each group.
In a second experiment, Compound 17 or its vehicle (0.5% natrosol 0.010% Tween 80) was given orally (5 ml/kg). Compound 17 was given at 10 mg/kg in two groups. In the first group, Compound 17 was given at 2 h after CLP and twice daily from day 1 to day 6. In the second group, Compound 17 was given at 24 h after CLP and twice daily from day 2 to day 6. 10 mice were included in each group.

TRPC6 = target: T1, TRPC6 (Homo sapiens, UniProt Q9Y210); experiment: in vitro Patch Clamp; type: cell-based
T1 sequence (Q9Y210 1-931): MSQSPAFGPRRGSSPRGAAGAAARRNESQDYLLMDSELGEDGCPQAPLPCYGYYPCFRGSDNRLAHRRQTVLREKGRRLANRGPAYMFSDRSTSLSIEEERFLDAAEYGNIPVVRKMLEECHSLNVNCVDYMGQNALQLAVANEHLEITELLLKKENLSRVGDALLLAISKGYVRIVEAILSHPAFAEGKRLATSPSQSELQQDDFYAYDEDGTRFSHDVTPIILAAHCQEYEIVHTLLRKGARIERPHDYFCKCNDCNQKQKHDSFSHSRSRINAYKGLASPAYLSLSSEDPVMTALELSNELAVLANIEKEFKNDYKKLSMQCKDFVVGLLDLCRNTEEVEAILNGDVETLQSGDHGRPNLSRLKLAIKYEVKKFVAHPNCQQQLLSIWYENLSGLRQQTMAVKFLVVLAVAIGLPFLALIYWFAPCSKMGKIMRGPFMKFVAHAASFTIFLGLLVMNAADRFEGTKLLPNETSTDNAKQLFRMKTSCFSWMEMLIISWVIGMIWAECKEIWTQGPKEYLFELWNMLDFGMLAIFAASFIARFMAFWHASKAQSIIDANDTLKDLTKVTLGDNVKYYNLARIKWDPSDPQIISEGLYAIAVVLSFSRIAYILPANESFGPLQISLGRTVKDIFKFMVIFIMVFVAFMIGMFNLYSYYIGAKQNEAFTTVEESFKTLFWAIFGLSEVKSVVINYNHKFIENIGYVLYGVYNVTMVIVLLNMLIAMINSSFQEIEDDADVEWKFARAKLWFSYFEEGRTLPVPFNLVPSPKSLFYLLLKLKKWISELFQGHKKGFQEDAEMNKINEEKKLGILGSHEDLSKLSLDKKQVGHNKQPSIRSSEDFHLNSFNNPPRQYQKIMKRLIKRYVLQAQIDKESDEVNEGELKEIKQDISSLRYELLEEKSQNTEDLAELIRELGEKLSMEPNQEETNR

[3] = tested on: LPS aerosol induced lung edema; experiment: LPS-induced vascular leakage in a mouse model (BALF total protein); type: in vivo; conditions: 4 h after LPS, average of two experiments
Protocol: Mice are placed in a chamber and exposed to Lipopolysaccharide (LPS, known as endotoxin and found in outer membrane of Gram-negative bacteria such as Escherichia Coli) aerosol (0.8 mg/ml) for 30 min (or Phosphate-Buffered Saline, PBS as vehicle). The TRPC6 inhibitor compound 17 is given orally 12 h and 2 h before LPS challenge. The mice are euthanized 4 h after the end of the LPS aerosol exposure. Blood is collected for plasma exposure of the compound and the lungs are flushed with 0.8 ml PBS. The broncho-alveolar-lavage is centrifuged at 500 revolutions/min for 10 min and the supernatant is collected for the measurement of total protein according to Lowry measurement by absorbance at 660 nm. The mouse LPS experiment is repeated twice, and the data of each experiment are represented in FIG. 3.1 for the first experiment and FIG. 3.2 for the second experiment. FIG. 3.3 represents the average of the two experiments expressed in percent of the LPS group.
LPS aerosol induced lung edema is characterized by a significant accumulation of Broncho-Alveolar-Lavage protein (BALF protein). […]
FIG. 3.1 and FIG. 3.2 show the amount and FIG. 3.3 the percent of total protein in BALF (Broncho Alveolar Lavage Fluid) after LPS (LipoPolySaccharide) treatment without or after pretreatment with (+) compound 17 as evaluated along the following tabular scheme

[4] = Example 1, prophylactic mode, 30 mg/kg orally 2 h before and 8 h after CLP
[5] = Example 1, therapeutic mode, 30 mg/kg orally 2 h and 8 h after CLP
[6] = Example 2, 30 mg/kg orally, therapeutic mode 2 and 8 h after CLP
[7] = Example 2, 10 mg/kg orally, therapeutic mode 2 and 8 h after CLP

Nc1ccc(C2CCN(C(=O)c3ccc(Oc4ccc(C(F)(F)F)cc4)cc3)CC2)nn1 [Compound 2 of WO 2019/161010]
inhibition of Evans blue concentration in heart (mouse CLP model [1]; Example 1, heart, therapeutic mode, 30 mg/kg orally 2 h and 8 h after CLP): 94% | inhibition of Evans blue concentration in kidney (mouse CLP model [1]; [4]): 84% | inhibition of Evans blue concentration in kidney (mouse CLP model [1]; [5]): 98% | inhibition of Evans blue concentration in liver (mouse CLP model [1]; [4]): 71% | inhibition of Evans blue concentration in liver (mouse CLP model [1]; [5]): 88% | inhibition of Evans blue concentration in lung (mouse CLP model [1]; Example 1, lung, prophylactic mode, 30 mg/kg orally 2 h before and 8 h after CLP, 24 h after CLP): 87% | inhibition of Evans blue concentration in lung (mouse CLP model [1]; Example 1, lung, therapeutic mode, 10 mg/kg orally 2 h and 8 h after CLP, 24 h after CLP): 87% | inhibition of Evans blue concentration in lung (mouse CLP model [1]; Example 1, lung, therapeutic mode, 30 mg/kg orally 2 h and 8 h after CLP, 24 h after CLP): 100% | reduction of Evans blue concentration in heart (mouse CLP model [1]; Example 2, heart, 30 mg/kg orally, therapeutic mode 2 and 8 h after CLP): 100% | reduction of Evans blue concentration in kidney (mouse CLP model [1]; [6]): 90% | reduction of Evans blue concentration in liver (mouse CLP model [1]; [6]): 58% | reduction of Evans blue concentration in lung tissue (mouse CLP model [1]; Example 2, lung, 30 mg/kg orally, therapeutic mode 2 and 8 h after CLP): 94% | survival rate at day 8 (mouse CLP model [2]; first experiment, 30 mg/kg orally 2 h after CLP and once daily from day 1 to day 6): 50% | survival rate compared with adrecizumab (mouse CLP model [2]; first experiment, day 8): significantly superior to adrecizumab survival rate

COc1cc(C(=O)N2CCC(c3ccc(N)nn3)CC2)ncc1Oc1ccc(F)cc1 [Compound 17, [4-(6-Amino-pyridazin-3-yl)-piperidin-1-yl]-[5-(4-fluoro-phenoxy)-4-methoxy-pyridin-2-yl]-methanone]
reduction of Evans blue concentration in heart (mouse CLP model [1]; Example 2, heart, 3 mg/kg orally, therapeutic mode 2 and 8 h after CLP): 100% | reduction of Evans blue concentration in heart (mouse CLP model [1]; Example 2, heart, 10 mg/kg orally, therapeutic mode 2 and 8 h after CLP): 120% | reduction of Evans blue concentration in kidney (mouse CLP model [1]; [7]): 95% | reduction of Evans blue concentration in liver (mouse CLP model [1]; [7]): 48% | inhibition of Evans blue concentration in lung (mouse CLP model [1]; Example 2, lung, 1 mg/kg orally, therapeutic mode 2 and 8 h after CLP): 65% | inhibition of Evans blue concentration in lung (mouse CLP model [1]; Example 2, lung, 3 mg/kg orally, therapeutic mode 2 and 8 h after CLP): 90% | inhibition of Evans blue concentration in lung (mouse CLP model [1]; Example 2, lung, 10 mg/kg orally, therapeutic mode 2 and 8 h after CLP): 100% | vascular leakage (mouse CLP model [1]; summary of FIGS. 2.1 to 2.4 (CLP) and FIGS. 3.1 to 3.3 (LPS)): significantly reduces vascular leakage | survival rate at day 8 (mouse CLP model [2]; second experiment, 10 mg/kg orally at 2 h after CLP and twice daily from day 1 to day 6): 60% | survival rate at day 8 (mouse CLP model [2]; second experiment, 10 mg/kg orally at 24 h after CLP and twice daily from day 2 to day 6): 50% | IC50 (TRPC6): 19 nM | IC90 (TRPC6): 104 nM | in vitro Patch Clamp IC75 (TRPC6): 48 nM | reduction of BALF protein concentration ([3]; 3 mg/kg p.o. 12 h and 2 h before LPS aerosol): 56% | reduction of BALF protein concentration ([3]; 10 mg/kg p.o. 12 h and 2 h before LPS aerosol): 62%

Adrecizumab: anti-adrenomedullin antibody
survival rate at day 8 (mouse CLP model [2]; first experiment, 4 mg/kg i.v. only once, 1 h before CLP): 30%
